Test results taken from patent publication US20120058999A1, “Substituted Tetrahydropyrrolopyrazine Compounds” (Gruenenthal GmbH, priority 2010, published 2012).

Columns and labels:
rat B1R = biological target: T1, rat B1R (Rattus norvegicus, UniProt P97583); test: Functional investigation on the bradykinin 1 receptor, cell-based fluorescent calcium-mobilization assay (FLIPR), rat; conditions: 10 μM test substance; CHO K1 cells transfected with rat B1R gene; agonist Des-Arg9-bradykinin at EC80; % of maximum achievable inhibition
T1 construct: expressed in transfected cells; host or cells: CHO K1 cells (stably transfected)
T1 sequence (P97583 1-337): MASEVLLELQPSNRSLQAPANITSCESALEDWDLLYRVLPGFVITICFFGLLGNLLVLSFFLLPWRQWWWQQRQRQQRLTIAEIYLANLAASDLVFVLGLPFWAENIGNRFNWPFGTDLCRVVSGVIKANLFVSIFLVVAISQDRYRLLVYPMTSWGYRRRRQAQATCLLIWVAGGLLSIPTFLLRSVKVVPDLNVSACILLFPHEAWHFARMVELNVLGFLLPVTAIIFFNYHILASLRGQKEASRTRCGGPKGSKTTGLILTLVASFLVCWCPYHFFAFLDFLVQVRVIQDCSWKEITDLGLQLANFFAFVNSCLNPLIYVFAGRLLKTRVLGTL
Method: (§1) The agonistic or antagonistic action of substances can be quantified on the bradykinin 1 receptor (B1R) of the human and rat species with ectopically expressing cell lines (CHO K1 cells) and with the aid of a Ca2+-sensitive dye (Fluo-4) using a fluorescent imaging plate reader (FLIPR). The value in % activation is based on the Ca2+ signal after addition of Lys-Des-Arg9 bradykinin (0.5 nM) or Des-Arg9 bradykinin (100 nM). Antagonists lead to a suppression of the Ca2+ influx following administration of the agonist. The % inhibition in comparison with the maximum achievable inhibition is indicated.
(§2) The agonistic or antagonistic action of substances can be determined on the bradykinin 1 receptor (B1R) of humans and rats by means of a cell-based fluorescent calcium-mobilization assay. According to this assay agonist-induced increase of intracellular free Ca^2+ is quantified by means of a Ca^2+-sensitive dye (Fluo-4 type, Molecular Probes Europe BV, Leiden, Netherlands), in a Fluorescent Imaging Plate Reader (FLIPR, Molecular Devices, Sunnyvale, USA) and/or the Novostar (BMG Labtech GmbH, Offenburg, Germany).
(§3) Chinese hamster ovary cells (CHO K1 cells), which are stably transfected with the human B1R gene (hB1R cells), or with the B1R gene of rats (rB1R cells) are used. For functional investigations these cells are seeded into black 96-well plates with a clear bottom (BD Biosciences, Heidelberg, Germany or Greiner, Frickenhausen, Germany) in a density of 20,000-35,000 cells/well. The cells are incubated overnight in a humidified atmosphere at 37° C. and 5% CO2 in culture medium (hB1R cells: Nutrient Mixture Ham's F12, Gibco Invitrogen GmbH, Karlsruhe, Germany or DMEM, Sigma-Aldrich, Taufkirchen, Germany; rB1R cells: D-MEM/F12, Gibco Invitrogen GmbH, Karlsruhe, Germany) with 10 vol. % FBS (foetal bovine serum, Gibco Invitrogen GmbH, Karlsruhe, Germany). On the following day the cells are loaded with the Ca^2+-sensitive dye Fluo-4-AM (Molecular Probes Europe BV, Leiden, Netherlands):
(§4) Method A: The medium of the cells is removed and cell plates are incubated with loading solution, which contains 2.13 μM Fluo-4-AM, 2.5 mM probenecid (Sigma-Aldrich, Taufkirchen, Germany), and 10 mM HEPES (Sigma-Aldrich, Taufkirchen, Germany) in HBSS buffer (Hank's buffered saline solution, Gibco Invitrogen GmbH, Karlsruhe, Germany) for 60 minutes at 37° C. After the plates are washed twice with HBSS buffer, HBSS buffer supplemented 0.1% BSA (bovine serum albumin; Sigma-Aldrich, Taufkirchen, Germany), 5.6 mM glucose and 0.05% gelatine (Merck KGaA, Darmstadt, Germany) is added. Cell plates are incubated for at least 20 minutes in the dark at room temperature before they are used for the Ca^2+ measurement in the FLIPR or Novostar. Method B: The plates are washed with buffer A (15 mM HEPES, 80 mM NaCl, 5 mM KCl, 1.2 mM CaCl2, 0.7 mM MgSO4, 2 mg/ml glucose, 2.5 mM probenecid) and subsequently loaded with buffer A containing 2.4 μM Fluo-4-AM and 0.025% pluronic F127 (Sigma-Aldrich, Taufkirchen, Germany) for 60 minutes at 37° C. Cell plates are washed twice with buffer A. Then, buffer A supplemented with 0.05% BSA and 0.05% gelatine is added and cell plates are incubated in the dark at room temperature for at least 20 minutes before measurement in the FLIPR or Novostar is started.
(§5) The Ca^2+-dependent fluorescence is measured both before and after the addition of substances (λex=488 nm, λem=540 nm). For quantification of the effect the highest fluorescence intensity (FC, fluorescence counts) over time is given.
(§6) The FLIPR protocol consists of two substance additions, done within the instrument while continuously monitoring the Ca^2+-dependent fluorescence at 540 nm. When the Novostar was used, one addition had to be done outside the instrument. First of all test substances (10 μM) are pipetted onto the cells and the intracellular Ca^2+ rise is compared with the control (hB1R: Lys-Des-Arg9-bradykinin >=50 nM; rB1R: Des-Arg9-bradykinin >=1 μM). […]

human B1R = biological target: T2, human B1R (Homo sapiens, UniProt P46663); test: Functional investigation on the bradykinin 1 receptor, cell-based fluorescent calcium-mobilization assay (FLIPR), human; conditions: 10 μM test substance; CHO K1 cells transfected with human B1R gene; agonist Lys-Des-Arg9-bradykinin at EC80; % of maximum achievable inhibition
T2 construct: expressed in transfected cells; host or cells: CHO K1 cells (stably transfected)
T2 sequence (P46663 1-353): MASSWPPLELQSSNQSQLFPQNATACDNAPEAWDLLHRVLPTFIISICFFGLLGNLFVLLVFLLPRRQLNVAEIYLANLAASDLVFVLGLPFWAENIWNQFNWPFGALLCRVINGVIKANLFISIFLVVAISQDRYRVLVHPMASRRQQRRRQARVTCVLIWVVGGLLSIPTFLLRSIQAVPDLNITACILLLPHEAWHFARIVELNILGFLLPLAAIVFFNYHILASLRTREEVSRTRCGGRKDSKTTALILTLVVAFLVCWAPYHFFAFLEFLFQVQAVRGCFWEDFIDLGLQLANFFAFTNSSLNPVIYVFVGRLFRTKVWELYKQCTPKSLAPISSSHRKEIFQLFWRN
Method: as §1, §2, §3, §4, §5, §6

SMILES	inhibition at 10 µM (rat B1R)	inhibition at 10 µM (human B1R)
COc1cc(C)c(S(=O)(=O)N2CCn3cccc3C2CCCC(=O)N[C@H]2CCC[C@@H](N3CCN(C)CC3)C2)c(C)c1 (relative stereo) [CC-07, 4-[2-[(4-Methoxy-2,6-dimethyl-phenyl)sulfonyl]-1,2,3,4-tetrahydro-pyrrolo[1,2-a]pyrazin-1-yl]-N-[cis-3-(4-methyl-piperazin-1-yl)-cyclohexyl]-butyramide]	101%	86%
CN1CCN([C@@H]2CCC[C@H](NC(=O)CCC3c4cccn4CCN3S(=O)(=O)c3cccc(C(F)(F)F)c3)C2)CC1 (relative stereo) [CC-10, N-[cis-3-(4-Methyl-piperazin-1-yl)-cyclohexyl]-3-[2-[[3-(trifluoromethyl)phenyl]sulfonyl]-1,2,3,4-tetrahydro-pyrrolo[1,2-a]pyrazin-1-yl]-propionamide]	36%	29%
COc1cc(C)c(S(=O)(=O)N2CCn3cccc3C2COCC(=O)N(C)C2CC(N3CCN(C)CC3)C2)c(C)c1 (stereo not shown) [CC-58, 2-[[2-[(4-Methoxy-2,6-dimethyl-phenyl)sulfonyl]-1,2,3,4-tetrahydro-pyrrolo[1,2-a]pyrazin-1-yl]-methoxy]-N-methyl-N-[3-(4-methyl-piperazin-1-yl)-cyclobutyl]-acetamide]	88%	38%
COc1cc(C)c(S(=O)(=O)N2CCn3cccc3C2CCCC(=O)N(C)C2CC(N3CCN(C)CC3)C2)c(C)c1 (stereo not shown) [CC-59, 4-[2-[(4-Methoxy-2,6-dimethyl-phenyl)sulfonyl]-1,2,3,4-tetrahydro-pyrrolo[1,2-a]pyrazin-1-yl]-N-methyl-N-[3-(4-methyl-piperazin-1-yl)-cyclobutyl]-butyramide]	97%	80%
COc1ccc2cc(S(=O)(=O)N3CCn4cccc4C3CC(=O)N(C)C3CC(N4CCN(C)CC4)C3)ccc2c1 (stereo not shown) [CC-60, 2-[2-[(6-Methoxy-naphthalen-2-yl)sulfonyl]-1,2,3,4-tetrahydro-pyrrolo[1,2-a]pyrazin-1-yl]-N-methyl-N-[3-(4-methyl-piperazin-1-yl)-cyclobutyl]-acetamide]	106%	99%
CN1CCN(C2CC(N(C)C(=O)CCC3c4cccn4CCN3S(=O)(=O)c3cccc(C(F)(F)F)c3)C2)CC1 (stereo not shown) [CC-61, N-Methyl-N-[3-(4-methyl-piperazin-1-yl)-cyclobutyl]-3-[2-[[3-(trifluoromethyl)phenyl]sulfonyl]-1,2,3,4-tetrahydro-pyrrolo[1,2-a]pyrazin-1-yl]-propionamide]	14%	12%
COc1cc(C)c(S(=O)(=O)N2CCn3cccc3C2COCC(=O)N(C)[C@H]2CCC[C@@H](N3CCN(C)CC3)C2)c(C)c1 (stereo partly drawn) [SC-01, 2-[[2-[(4-Methoxy-2,6-dimethyl-phenyl)sulfonyl]-1,2,3,4-tetrahydro-pyrrolo[1,2-a]pyrazin-1-yl]-methoxy]-N-methyl-N-[(1S,3R)-3-(4-methyl-piperazin-1-yl)-cyclohexyl]-acetamide]	103%	100%
Cc1cccc(Cl)c1S(=O)(=O)N1CCn2cccc2C1COCC(=O)N(C)[C@H]1CCC[C@@H](N2CCN(C)CC2)C1 (stereo partly drawn) [SC-02, 2-[[2-[(2-Chloro-6-methyl-phenyl)sulfonyl]-1,2,3,4-tetrahydro-pyrrolo[1,2-a]pyrazin-1-yl]-methoxy]-N-methyl-N-[(1S,3R)-3-(4-methyl-piperazin-1-yl)-cyclohexyl]-acetamide]	105%	100%
Cc1cc(S(=O)(=O)N2CCn3cccc3C2CCC(=O)N(C)[C@H]2CCC[C@@H](N3CCN(C)CC3)C2)c(C)cc1Cl (stereo partly drawn) [SC-03, 3-[2-[(4-Chloro-2,5-dimethyl-phenyl)sulfonyl]-1,2,3,4-tetrahydro-pyrrolo[1,2-a]pyrazin-1-yl]-N-methyl-N-[(1S,3R)-3-(4-methyl-piperazin-1-yl)-cyclohexyl]-propionamide]	61%	95%
COc1cc(C)c(S(=O)(=O)N2CCn3cccc3C2COCC(=O)N(C)C2CCC(N3CCN(C)CC3)CC2)c(C)c1 (stereo not shown) [SC-05, 2-[[2-[(4-Methoxy-2,6-dimethyl-phenyl)sulfonyl]-1,2,3,4-tetrahydro-pyrrolo[1,2-a]pyrazin-1-yl]-methoxy]-N-methyl-N-[4-(4-methyl-piperazin-1-yl)-cyclohexyl]-acetamide]	100%	101%
COc1cc(C)c(S(=O)(=O)N2CCn3c(C)ccc3C2COCC(=O)N(C)[C@H]2CCC[C@@H](N3CCN(C)CC3)C2)c(C)c1 (stereo partly drawn) [SC-06, 2-[[2-[(4-Methoxy-2,6-dimethyl-phenyl)sulfonyl]-6-methyl-1,2,3,4-tetrahydro-pyrrolo[1,2-a]pyrazin-1-yl]-methoxy]-N-methyl-N-[(1S,3R)-3-(4-methyl-piperazin-1-yl)-cyclohexyl]-acetamide]	110%	97%
